≈ marks a conversion by molar mass, not a printed value. Calls of active or inactive are those of the source. The calls are words filed in the database; no cut-off is given here.
Key:
[1] = Inhibition of Klebsiella pneumoniae beta-lactamase IMP-28 using nitrocefin chromogenic substrate measured after 15 to 60 min at 25 degC by microplate reader
Escherichia coli [2] = experiment: Inhibition of Metallo-beta-lactamase VIM-2 in Escherichia coli clinical isolate assessed as fold reduction in meropenem MIC at 64 ug/ml; settings: dose 64.0 µg/ml
Enterobacter cloacae [3] = experiment: Inhibition of Metallo-beta-lactamase IMP-1 in Enterobacter cloacae clinical isolate assessed as fold reduction in meropenem MIC at 128 ug/ml; settings: dose 128.0 µg/ml
Klebsiella pneumoniae [4] = experiment: Inhibition of Metallo-beta-lactamase IMP-28 in Klebsiella pneumoniae clinical isolate assessed as fold reduction in meropenem MIC at 32 ug/ml; settings: dose 32.0 µg/ml
Escherichia coli [5] = experiment: Inhibition of Metallo-beta-lactamase NDM-1 in Escherichia coli clinical isolate assessed as MIC for meropenem antibacterial activity at 64 ug/ml (reference value: 32 ug/ml); settings: dose 64.0 µg/ml
Klebsiella pneumoniae [6] = experiment: Inhibition of Metallo-beta-lactamase IMP-28 in Klebsiella pneumoniae clinical isolate assessed as fold reduction in meropenem MIC at 64 ug/ml; settings: dose 64.0 µg/ml
Klebsiella pneumoniae [7] = experiment: Inhibition of Metallo-beta-lactamase IMP-28 in Klebsiella pneumoniae clinical isolate assessed as fold reduction in meropenem MIC at 128 ug/ml; settings: dose 128.0 µg/ml
Klebsiella pneumoniae [8] = experiment: Inhibition of Metallo-beta-lactamase IMP-28 in Klebsiella pneumoniae clinical isolate assessed as MIC for meropenem antibacterial activity at 32 ug/ml (reference value: 2 ug/ml); settings: dose 32.0 µg/ml
Klebsiella pneumoniae [9] = experiment: Substrate activity at Klebsiella pneumoniae beta-lactamase IMP-28 assessed as compound hydrolysis by measuring Km by Michaelis-Menten analysis
Escherichia coli [10] = experiment: Inhibition of Metallo-beta-lactamase NDM-1 in Escherichia coli clinical isolate assessed as MIC for meropenem antibacterial activity at 128 ug/ml (reference value: 32 ug/ml); settings: dose 128.0 µg/ml
Klebsiella pneumoniae [11] = experiment: Substrate activity at Klebsiella pneumoniae beta-lactamase IMP-28 assessed as compound hydrolysis by measuring Kcat/Km by Michaelis-Menten analysis
Enterobacter cloacae [12] = experiment: Inhibition of Metallo-beta-lactamase IMP-1 in Enterobacter cloacae clinical isolate assessed as fold reduction in meropenem MIC at 32 ug/ml; settings: dose 32.0 µg/ml
Escherichia coli [13] = experiment: Antibacterial activity against beta-lactamase VIM2 producing Escherichia coli clinical isolate measured upto 128 ug/ml; type: functional, organism-based
Escherichia coli [14] = experiment: Inhibition of Metallo-beta-lactamase NDM-1 in Escherichia coli clinical isolate assessed as fold reduction in meropenem MIC at 64 ug/ml; settings: dose 64.0 µg/ml
Enterobacter cloacae [15] = experiment: Antibacterial activity against beta-lactamase IMP1 producing Enterobacter cloacae clinical isolate measured upto 128 ug/ml; type: functional, organism-based
Escherichia coli [16] = experiment: Inhibition of Metallo-beta-lactamase VIM-2 in Escherichia coli clinical isolate assessed as MIC for meropenem antibacterial activity at 32 ug/ml (reference value: 4 ug/ml); settings: dose 32.0 µg/ml
Enterobacter cloacae [17] = experiment: Inhibition of Metallo-beta-lactamase IMP-1 in Enterobacter cloacae clinical isolate assessed as fold reduction in meropenem MIC at 64 ug/ml; settings: dose 64.0 µg/ml
Escherichia coli [18] = experiment: Inhibition of Metallo-beta-lactamase NDM-1 in Escherichia coli clinical isolate assessed as MIC for meropenem antibacterial activity at 32 ug/ml (reference value: 32 ug/ml); settings: dose 32.0 µg/ml
[19] = Inhibition of Enterobacter cloacae IMP-1 using nitrocefin chromogenic substrate measured after 15 to 60 min at 25 degC by microplate reader
Escherichia coli [20] = experiment: Inhibition of Metallo-beta-lactamase VIM-2 in Escherichia coli clinical isolate assessed as fold reduction in meropenem MIC at 32 ug/ml; settings: dose 32.0 µg/ml
Escherichia coli [21] = experiment: Inhibition of Metallo-beta-lactamase NDM-1 in Escherichia coli clinical isolate assessed as fold reduction in meropenem MIC at 128 ug/ml; settings: dose 128.0 µg/ml
Escherichia coli [22] = experiment: Inhibition of Metallo-beta-lactamase VIM-2 in Escherichia coli clinical isolate assessed as MIC for meropenem antibacterial activity at 128 ug/ml (reference value: 4 ug/ml); settings: dose 128.0 µg/ml
Klebsiella pneumoniae [23] = experiment: Inhibition of Metallo-beta-lactamase IMP-28 in Klebsiella pneumoniae clinical isolate assessed as MIC for meropenem antibacterial activity at 64 ug/ml (reference value: 2 ug/ml); settings: dose 64.0 µg/ml
Klebsiella pneumoniae [24] = experiment: Antibacterial activity against beta-lactamase IMP-28 producing Klebsiella pneumoniae clinical isolate measured upto 128 ug/ml; type: functional, organism-based
Klebsiella pneumoniae [25] = experiment: Substrate activity at Klebsiella pneumoniae beta-lactamase IMP-28 assessed as compound hydrolysis by measuring Kcat by Michaelis-Menten analysis
Escherichia coli [26] = experiment: Inhibition of Metallo-beta-lactamase VIM-2 in Escherichia coli clinical isolate assessed as MIC for meropenem antibacterial activity at 64 ug/ml (reference value: 4 ug/ml); settings: dose 64.0 µg/ml
Klebsiella pneumoniae [27] = experiment: Inhibition of Metallo-beta-lactamase IMP-28 in Klebsiella pneumoniae clinical isolate assessed as MIC for meropenem antibacterial activity at 128 ug/ml (reference value: 2 ug/ml); settings: dose 128.0 µg/ml
Escherichia coli [28] = experiment: Inhibition of Metallo-beta-lactamase NDM-1 in Escherichia coli clinical isolate assessed as fold reduction in meropenem MIC at 32 ug/ml; settings: dose 32.0 µg/ml
Escherichia coli [29] = experiment: Inhibition of Metallo-beta-lactamase VIM-2 in Escherichia coli clinical isolate assessed as fold reduction in meropenem MIC at 128 ug/ml; settings: dose 128.0 µg/ml
Enterobacter cloacae [30] = experiment: Inhibition of Metallo-beta-lactamase IMP-1 in Enterobacter cloacae clinical isolate assessed as MIC for meropenem antibacterial activity at 64 ug/ml (reference value: 32 ug/ml); settings: dose 64.0 µg/ml
[31] = Inhibition of Escherichia coli beta-lactamase VIM-2 using nitrocefin chromogenic substrate measured after 15 to 60 min at 25 degC by microplate reader
Enterobacter cloacae [32] = experiment: Inhibition of Metallo-beta-lactamase IMP-1 in Enterobacter cloacae clinical isolate assessed as MIC for meropenem antibacterial activity at 128 ug/ml (reference value: 32 ug/ml); settings: dose 128.0 µg/ml
Enterobacter cloacae [33] = experiment: Inhibition of Metallo-beta-lactamase IMP-1 in Enterobacter cloacae clinical isolate assessed as MIC for meropenem antibacterial activity at 32 ug/ml (reference value: 32 ug/ml); settings: dose 32.0 µg/ml
Escherichia coli [34] = experiment: Antibacterial activity against beta-lactamase NDM1 producing Escherichia coli clinical isolate measured upto 128 ug/ml; type: functional, organism-based
[35] = Inhibition of Escherichia coli beta-lactamase NDM-1 using nitrocefin chromogenic substrate measured after 15 to 60 min at 25 degC by microplate reader
[36] = Stability of the compound in Muller hinton broth assessed compound remaining measured after 15 hrs by HPLC analysis; type: physicochemical; settings: Mueller Hinton broth, read-out: Stability
Klebsiella pneumoniae [37] = experiment: Inhibition of Metallo-beta-lactamase IMP-28 in Klebsiella pneumoniae clinical isolate assessed as MIC for meropenem antibacterial activity at 32 ug/ml (reference value: 4 ug/ml); settings: dose 32.0 µg/ml
Enterobacter cloacae [38] = experiment: Inhibition of Metallo-beta-lactamase IMP-1 in Enterobacter cloacae clinical isolate assessed as MIC for meropenem antibacterial activity at 64 ug/ml (Rvb =16 ug/ml); settings: dose 64.0 µg/ml
Enterobacter cloacae [39] = experiment: Inhibition of Metallo-beta-lactamase IMP-1 in Enterobacter cloacae clinical isolate assessed as MIC for meropenem antibacterial activity at 32 ug/ml (Rvb =16 ug/ml); settings: dose 32.0 µg/ml
Escherichia coli [40] = experiment: Inhibition of Metallo-beta-lactamase VIM-2 in Escherichia coli clinical isolate assessed as MIC for meropenem antibacterial activity at 128 ug/ml (reference value: 8 ug/ml); settings: dose 128.0 µg/ml
Klebsiella pneumoniae [41] = experiment: Inhibition of Metallo-beta-lactamase IMP-28 in Klebsiella pneumoniae clinical isolate assessed as MIC for meropenem antibacterial activity at 128 ug/ml (reference value: 4 ug/ml); settings: dose 128.0 µg/ml
Escherichia coli [42] = experiment: Inhibition of Metallo-beta-lactamase VIM-2 in Escherichia coli clinical isolate assessed as MIC for meropenem antibacterial activity at 32 ug/ml (reference value: 8 ug/ml); settings: dose 32.0 µg/ml
Enterobacter cloacae [43] = experiment: Inhibition of Metallo-beta-lactamase IMP-1 in Enterobacter cloacae clinical isolate assessed as MIC for meropenem antibacterial activity at 128 ug/ml (Rvb =16 ug/ml); settings: dose 128.0 µg/ml
Klebsiella pneumoniae [44] = experiment: Inhibition of Metallo-beta-lactamase IMP-28 in Klebsiella pneumoniae clinical isolate assessed as MIC for meropenem antibacterial activity at 64 ug/ml (reference value: 4 ug/ml); settings: dose 64.0 µg/ml
Escherichia coli [45] = experiment: Inhibition of Metallo-beta-lactamase VIM-2 in Escherichia coli clinical isolate assessed as MIC for meropenem antibacterial activity at 64 ug/ml (reference value: 8 ug/ml); settings: dose 64.0 µg/ml
[46] = Stability of the compound assessed as Klebsiella pneumoniae beta-lactamase IMP-28-mediated degradation by measuring appearance of vinyl protons release measured after 120 mins by NMR spectra; type: ADME; settings: 2 h

SMILES | IC50 [1] [µM] | fold change (FC) (Escherichia coli [2]) | fold change (FC) (Enterobacter cloacae [3]) | fold change (FC) (Klebsiella pneumoniae [4]) | MIC (Escherichia coli [5]) [µg/mL] | fold change (FC) (Klebsiella pneumoniae [6]) | fold change (FC) (Klebsiella pneumoniae [7]) | MIC (Klebsiella pneumoniae [8]) [µg/mL] | MIC (Escherichia coli [10]) [µg/mL] | fold change (FC) (Enterobacter cloacae [12]) | Activity (Escherichia coli [13]) | fold change (FC) (Escherichia coli [14]) | Activity (Enterobacter cloacae [15]) | fold change (FC) (Enterobacter cloacae [17]) | MIC (Escherichia coli [18]) [µg/mL] | fold change (FC) (Escherichia coli [20]) | fold change (FC) (Escherichia coli [21]) | fold change (FC) (Escherichia coli [28]) | fold change (FC) (Escherichia coli [29]) | IC50 [31] [µM] | other results
O=C(Cc1ccccc1)N[C@@H]1C(=O)N2C(C(=O)O)=C(CSCc3ccccc3)CS[C@H]12 | 45 | 2 | 8 | 4 | 16 (≈ 35.2 µM) | 8 | 8 | 0.5 (≈ 1.1 µM) | 16 (≈ 35.2 µM) | 4 | inactive | 2 | inactive | 4 | 16 (≈ 35.2 µM) | 2 | 2 | 2 | 4 | 73 | Km (Klebsiella pneumoniae [9]): 20.5 µM; kcat/Km (Klebsiella pneumoniae [11]): 0.529 µM⁻¹ s⁻¹; MIC (Escherichia coli [16]): 2 µg/mL (≈ 4.4 µM); IC50 [19]: 43 µM; MIC (Escherichia coli [22]): 1 µg/mL (≈ 2.2 µM); MIC (Klebsiella pneumoniae [23]): 0.25 µg/mL (≈ 0.55 µM); Activity (Klebsiella pneumoniae [24]): inactive; kcat (Klebsiella pneumoniae [25]): 10.8 s⁻¹; MIC (Escherichia coli [26]): 2 µg/mL (≈ 4.4 µM); MIC (Klebsiella pneumoniae [27]): 0.25 µg/mL (≈ 0.55 µM); MIC (Enterobacter cloacae [30]): 8 µg/mL (≈ 17.6 µM); MIC (Enterobacter cloacae [32]): 4 µg/mL (≈ 8.8 µM); MIC (Enterobacter cloacae [33]): 8 µg/mL (≈ 17.6 µM); Activity (Escherichia coli [34]): inactive
O=C(O)c1cccc(C(=O)O)n1 [DIPICOLINIC ACID] | – | > 64 | 128 | 16 | 0.5 (≈ 2.99 µM) | > 64 | > 64 | 0.125 (≈ 0.748 µM) | < 0.5 | 2 | – | 64 | – | 32 | 0.5 (≈ 2.99 µM) | > 64 | > 64 | 64 | > 64 | 10 | MIC (Escherichia coli [16]): < 0.063 µg/mL; IC50 [35]: 10 µM; MIC (Escherichia coli [22]): < 0.063 µg/mL; MIC (Klebsiella pneumoniae [23]): < 0.031 µg/mL; MIC (Escherichia coli [26]): < 0.063 µg/mL; MIC (Klebsiella pneumoniae [27]): < 0.031 µg/mL; MIC (Enterobacter cloacae [30]): 1 µg/mL (≈ 5.98 µM); MIC (Enterobacter cloacae [32]): 0.25 µg/mL (≈ 1.5 µM); MIC (Enterobacter cloacae [33]): 16 µg/mL (≈ 95.7 µM)
O=C(Cc1ccccc1)N[C@@H]1C(=O)N2C(C(=O)O)=C(CSCC(=O)c3ccccc3)CS[C@H]12 | 14 | 2 | 4 | 4 | 8 (≈ 16.6 µM) | 8 | 16 | – | 8 (≈ 16.6 µM) | 2 | inactive | 4 | inactive | 2 | 16 (≈ 33.2 µM) | 1 | 4 | 2 | 2 | 76 | remaining at 15 h [36]: > 95%; MIC (Klebsiella pneumoniae [37]): 1 µg/mL (≈ 2.07 µM); MIC (Enterobacter cloacae [38]): 8 µg/mL (≈ 16.6 µM); MIC (Enterobacter cloacae [39]): 8 µg/mL (≈ 16.6 µM); MIC (Escherichia coli [40]): 4 µg/mL (≈ 8.29 µM); MIC (Klebsiella pneumoniae [41]): 0.25 µg/mL (≈ 0.518 µM); MIC (Escherichia coli [42]): 8 µg/mL (≈ 16.6 µM); MIC (Enterobacter cloacae [43]): 4 µg/mL (≈ 8.29 µM); IC50 [35]: 77 µM; IC50 [19]: 3.3 µM; MIC (Klebsiella pneumoniae [44]): 0.5 µg/mL (≈ 1.04 µM); Activity (Klebsiella pneumoniae [24]): inactive; MIC (Escherichia coli [45]): 4 µg/mL (≈ 8.29 µM); Activity (Escherichia coli [34]): inactive
CC(=O)OCC1=C(C(=O)O)N2C(=O)[C@@H](NC(=O)Cc3ccccc3)[C@H]2SC1 [CEFALORAM] | – | – | – | – | – | – | – | – | – | – | – | – | – | – | – | – | – | – | – | – | Stability [46]: Unstable

— ChEMBL document CHEMBL5034010, “Novel Cephalosporin Conjugates Display Potent and Selective Inhibition of Imipenemase-Type Metallo-β-Lactamases” (J Med Chem, 2021)
